According to EP0866074A1, “NOVEL NK374186 ANALOGUES OR PHARMACOLOGICALLY ACCEPTABLE SALTS THEREOF” (NIPPON KAYAKU KABUSHIKI KAISHA, priority 1995, dated 1996):
Converted amounts (≈) assume the structure as drawn.

Tests used:
[1] = tested on: cell line A2780 derived from human ovarian cancer; test: Suppression of cancer cell proliferation (MTT method); type: cell-based
Method: Cells were cultured in an RPMI culture medium supplemented with 10 % calf fetus serum in the presence of 5 % CO2 at 37 °C. The cells were inoculated and cultured in a 96-well plate for one day, followed by addition of one of the pharmaceutical compounds. The cells were treated with the compounds for 3 days, and the effects were assessed by the proliferation-suppressed MTT method. The activities of the compounds on the suppression of the proliferation of Cancer cells are shown below. The cancer cells were of a cell line A2780 derived from human ovarian cancer.

[2] = tested on: Human peripheral T cells; test: Blastoid transformation via OKT-3 (3H-thymidine incorporation); type: cell-based; settings: 2 ng/ml OKT-3 antibody, 72-hr cultivation
Method: For cultivation, RPMI 1640 medium supplemented with 10 % calf fetus serum, 25 mM HEPS buffer, 100 µg/ml streptomycin […] and 100 units/ml penicillin G in a 96-well flat-bottom microplate (coaster) was used. As a mitogen, 2 ng/ml OKT-3 antibody was used.
Human peripheral T cells Were collected from blood drawn with heparin by the density-gradient centrifugation method. 200,000 cells and test compounds at individual concentrations were added to each well to a total volume of 0.2 ml, for 72-hr cultivation. Eight hours before termination of the cultivation, 37 kBq ^3H - thymidine was added to determine the incorporation thereof into the cells. The effects were evaluated on the basis of the ratio of the incorporated ^3H - thymidine in the groups with addition of the test compounds to the incorporated ^3H - thymidine in the control group (Japanese Immunology Association, Methods for Experiment Immunology, pp. 2267 - 2276).

[3] = tested on: graft vs host reaction; test: Graft vs host reaction (GVH), spleen weight method; type: in vivo, mouse; settings: for Spleen weight/body weight: spleen weighed 7 days after transplantation, BDF mouse; for Index: relative to Untreated = 1.00
Method: The spleen weight method by Fords, et al. [W.L. Ford et al., Handbook of Experimental Immunology 30, D.M. Weir, ed., Blackwell Scientific Publications, 1978, pp. 1] was followed. Spleen cells of 5×10^6, separated from a C57BL/6 mouse (8 weeks of age, male) as a donor, were transplanted peritoneally in a BDF mouse (7 weeks of age, male) as a recipient. Simultaneously, NK374186, a control agent or a solvent control (0.25 % gum arabic) was injected subcutaneously in the dorsal skin of the BDF mouse. The NK374186 and the control agent were preliminarily dissolved in 0.25 % gum arabic. Furthermore, on day 1 and day 2, the same administration was conducted, and 7 days after the transplantation, the spleen was weighed.

Structure (SMILES): CCCCCCCCCCCCCC1OC(=O)C(COC(C)=O)NC(=O)C(C(C)OP(=O)(O)O)NC(=O)C(C(C)C)NC(=O)C(C)C(O)C1C (stereo not shown) [NK374186P]
- IC50 ([1]; Homo sapiens, 72 h, A2780 cells, treated for 3 days, MTT method): 33 µg/mL (≈ 44.8 µM)
- activities on the suppression of the proliferation of the cancer cells ([1]; result in words, summary of Table 1): have activities on the suppression of the proliferation of the cancer cells
- ratio of the incorporated 3H-thymidine in the groups with addition of the test compounds to the control group ([2]; Concentration 0.03 (unit not given)): 99.6
- ratio of the incorporated 3H-thymidine in the groups with addition of the test compounds to the control group ([2]; Concentration 0.1 (unit not given)): 100.6
- ratio of the incorporated 3H-thymidine in the groups with addition of the test compounds to the control group ([2]; Concentration 0.3 (unit not given)): 102.6
- ratio of the incorporated 3H-thymidine in the groups with addition of the test compounds to the control group ([2]; Concentration 1.0 (unit not given)): 119.7
- ratio of the incorporated 3H-thymidine in the groups with addition of the test compounds to the control group ([2]; Concentration 3.0 (unit not given)): 131.4
- ratio of the incorporated 3H-thymidine in the groups with addition of the test compounds to the control group ([2]; Concentration 10.0 (unit not given)): 97.7
- ratio of the incorporated 3H-thymidine in the groups with addition of the test compounds to the control group ([2]; Concentration 30.0 (unit not given)): 69.3
- Spleen weight/body weight ([3]; Dose 0.5 mg/kg subcutaneously on day 0, 1 and 2): 10.01 X10^-3
- Index ([3]; Dose 0.5 mg/kg): 2.07
- Spleen weight/body weight ([3]; Dose 5.0 mg/kg subcutaneously on day 0, 1 and 2): 11.45 X10^-3
- Index ([3]; Dose 5.0 mg/kg): 2.37
- Spleen weight/body weight ([3]; Dose 50.0 mg/kg subcutaneously on day 0, 1 and 2): 12.00 X10^-3
- Index ([3]; Dose 50.0 mg/kg): 2.48
- effect on GVH ([3]; result in words, summary of Table 3, ratio of spleen weight to body weight increases depending on the dose): significant GVH suppression
